Source: patent publication US6911455B2, “Methods for preparing pharmaceutical formulations” (SmithKline Beecham Corporation, priority 1999, dated 2005)
“And” between values parts separate entries of the source, which are not always exact repeats. Identical values can stand only once.

Tests used:
[1] = Surface tension analysis (DuNouy ring method); assay type: physicochemical
From the text: Aggregation of the histamine releaser in the reference solution and the comparative solution(s) can be measured by measuring the surface tension of each of the reference solution and the comparative solution(s) using the DuNouy ring method, as described in PHYSICAL PHARMACY: PHYSICAL CHEMICAL PRINCIPLES IN THE PHARMACEUTICAL SCIENCES, Editors: Alfred Martin, James Swarbrick, Arthur Cammarata, Third Edition, Lea Et Febiger, Philadelphia, 1983. Surface tension may provide a measure of the critical micelle concentration of the histamine releaser in solution and for this reason is an indicator of aggregation of the histamine releaser in the solution. […]
The surface tension properties of the histamine liberating agent can be evaluated using the DuNouy ring method. […]
The force required to detach the ring in this manner is provided by a torsion wire and is recorded in dynes on a calibrated dial. […]
The tensiometer is calibrated with filtered water and the surface tension of a 50 mg/mL solution of Compound 1 in water is evaluated at room temperature.
The surface tension of each solution is evaluated at room temperature and the results are recorded in a curve of surface tension (y-axis) versus concentration of drug (x-axis).

[2] = Proton NMR relaxation rates (T1, T2) as measure of aggregation; assay type: physicochemical; conditions: for T1 / T2: D2O saline (150 mM NaCl)
From the text: There are two types of NMR relaxation, spin-lattice and spin-spin relaxation, referred to as T1 and T2 values, respectively. T1 and T2 are rate constants which measure the relaxation of NMR magnetization back to equilibrium (hereinafter collectively referred to as “NMR relaxation rates”). For small molecules in what is called the extreme narrowing limit, both T1 and T2 increase in inverse proportion to the rotational tumbling rate tc, which, in turn, is directly proportional to the average size of the aggregate. Thus, for small molecules, increases in T1 and/or T2 rates with the addition of excipient to the solution containing the histamine releaser, in the absence of significant changes in the viscosity of the solution, indicates a decrease in aggregation.
Compound 1 and excipient (in the various amounts noted below) are dissolved in 200 μL of D2O with 0.15 M NaCl adjusted to pD 3.0 with NaOD and/or DCl for compound stability reasons. Deuterated saline solution is used in the reference solution because critical compound peaks (or signals) overlap when deuterated water is employed. Samples in a titration series are prepared by serial dilutions. All NMR spectra are recorded at 30° C. on a Varian Unity Plus 500 MHz spectrometer. Spectra are referenced to D2O at 4.65 ppm. All spectra are processed using Varian VNMR® software v6.1a. T1 and T2 relaxation rates are measured using the standard inversion-recovery and Carr-Purcell-Meiboom-Gill (CPMG) experiments respectively, both of which are provided with the Varian software. CPMG experiments are described in M. Bulsing, et al., J. Chem. Soc. Chem. Commun. 1201-3 (1981); R. Freeman et al., IN DYNAMIC NMR SPECTROSCOPY, eds. L. Jackman and F. Cotton (1975) pp. 131-162, Academic Press, London and New York; and D. Rabenstein, et al., J. Magn. Reson. 64:541-546 (1985).
A series of solutions with increasing concentrations of Compound 1 in D2O saline, pD 3.0 are prepared and the NMR relaxation rate constants measured. Both T1S and T2S are measured because the drug, with a molecular weight of 1064.51, could lie outside the extreme motional narrowing limit for NMR, in which case, T1S would be expected to decrease and T2S would be expected to increase with a decrease in aggregation. See, K. Wüthrich, NMR OF PROTEINS AND NUCLEIC ACIDS, (1986) John Wiley Sons, New York.
A series of solutions containing 80 mM Compound 1 with increasing concentrations of d4-citrate in D2O saline, pD 3.0, are prepared, and the NMR relaxation rates are measured. The data obtained is summarized in Table 2 and reported graphically in FIG. 2.
A series of solutions containing 80 mM Compound 1 and varying concentrations of CaCl2 and d4-citrate in D2O saline, pD 3.0, are prepared, and the NMR relaxation rates are measured.

[3] = 80 mM Compound 1, d4-citrate 0.78 mM, pD 3
[4] = 80 mM Compound 1, d4-citrate 1.56 mM, pD 3
[5] = 80 mM Compound 1, d4-citrate 3.13 mM, pD 3
[6] = 80 mM Compound 1, d4-citrate 6.25 mM, pD 3
[7] = 80 mM Compound 1, d4-citrate 12.5 mM, pD 3
[8] = 80 mM Compound 1, d4-citrate 25 mM, pD 3
[9] = 80 mM Compound 1, d4-citrate 50 mM, pD 3
[10] = 80 mM Compound 1, d4-citrate 100 mM, pD 3
[11] = vinyl proton, 20 mM Compound 1, pD 3, 30° C.
[12] = vinyl proton, 40 mM Compound 1, pD 3, 30° C.
[13] = vinyl proton, 80 mM Compound 1, no excipient (reference solution), pD 3, 30° C.
[14] = vinyl proton, 160 mM Compound 1, pD 3, 30° C.

critical micelle concentration ([1]; in water): about 14 mM | slowing of relaxation rates compared to the reference solution ([2]; 80 mM Compound 1, 50 mM d4-citrate, D2O saline, pD 3): at least 25% | change in the T1 value (slowing of the relaxation rate) compared to the reference solution ([2]; 80 mM Compound 1, CaCl2 + d4-citrate, all but the two lowest concentrations of CaCl2 of Table 3): greater than 25% | d4-citrate concentration giving maximal effect on decreasing aggregation ([2]; 80 mM Compound 1, D2O saline, pD 3): 50 mM | T1 ([2]; 80 mM Compound 1, d4-citrate 0.78 mM + CaCl2 100 mM, pD 3): 2.78 s | T1 [2, 3]: 1.53 s | T2 [2, 3]: 0.57 s | T1 [2, 4]: 1.65 s | T2 [2, 4]: 0.59 s | T1 [2, 5]: 1.69 s | T2 [2, 5]: 0.67 s | T1 ([2]; 80 mM Compound 1, d4-citrate 5 mM + CaCl2 3.13 mM, pD 3): 1.45 s | T1 ([2]; 80 mM Compound 1, d4-citrate 5 mM + CaCl2 6.25 mM, pD 3): 1.47 s | T1 ([2]; 80 mM Compound 1, d4-citrate 5 mM + CaCl2 12.5 mM, pD 3): 1.51 s | T1 ([2]; 80 mM Compound 1, d4-citrate 5 mM + CaCl2 25 mM, pD 3): 1.89 s | T1 ([2]; 80 mM Compound 1, d4-citrate 5 mM + CaCl2 50 mM, pD 3): 1.94 s | T1 ([2]; 80 mM Compound 1, d4-citrate 5 mM + CaCl2 100 mM, pD 3): 2.14 s | T1 [2, 6]: 1.24 s | T2 [2, 6]: 0.69 s | T1 [2, 7]: 2.09 s | T2 [2, 7]: 1.01 s | T1 [2, 8]: 2.03 s | T2 [2, 8]: 0.87 s | T1 ([2]; 80 mM Compound 1, d4-citrate 50 mM + CaCl2 100 mM, pD 3): 2.26 s | T1 [2, 9]: 2.13 s | T2 [2, 9]: 1.31 s | T1 [2, 10]: 1.96 s | T2 [2, 10]: 0.85 s | critical micelle concentration ([2]; in saline (D2O saline, pD 3)): 40 to 80 mM | T1 ([2]; vinyl proton, 10 mM Compound 1, pD 3, 30° C.): 2.05 s | T1 [2, 11]: 2.30 s | T2 [2, 11]: 2.04 s | T1 [2, 12]: 2.49 s | T2 [2, 12]: 1.96 s | T1 [2, 13]: 1.20 s and 1.2 s | T2 [2, 13]: 0.38 s | T1 [2, 14]: 0.83 s | T2 [2, 14]: 0.13 s
Compound: COc1cc2c(cc1OC)[C@H](c1cc(OC)c(OC)c(OC)c1)[N@@+](C)(CCCOC(=O)/C=C(\Cl)C(=O)OCCC[N@+]1(C)CCc3cc(OC)c(OC)cc3[C@H]1Cc1cc(OC)c(OC)c(OC)c1)CC2.[Cl-].[Cl-] [Compound 1, (Z)-2-chloro-1-{3-{(1R,2S)-6,7-dimethoxy-2-methyl-1-[(3,4,5-trimethoxyphenyl)methyl]-1,2,3,4-tetrahydro-2-isoquinolinio}propyl}-4-{3-[(1S,2R)-6,7-dimethoxy-2-methyl-1-(3,4,5-trimethoxyphenyl)-1,2,3,4-tetrahydro-2-isoquinolinio]propyl}-2-butenedioate dichloride]
surface tension versus concentration ([1]; 1-50 mg/mL in water, room temperature, FIG. 1): concentration dependent surface tension lowering
